Test results from PMC11176561 (Computational and Structural Biotechnology Journal, 2024).

System: ceftazidime-resistant E. coli E24
Experiment: E. coli-induced mouse bacteremia
[1] = ceftazidime 5 mg/kg i.p., 8 h of drug treatment

CC(C)(O/N=C(\C(=O)N[C@@H]1C(=O)N2C(C(=O)[O-])=C(C[n+]3ccccc3)CS[C@H]12)c1csc(N)n1)C(=O)O [Ceftazidime]
loss of mice (mortality) (ceftazidime 5 mg/kg i.p. 2 h after i.p. E. coli E24): 85.7%
bacterial load in the blood [1]: approximately 1 × 10^9 CFU/ml
bacterial load in the lung, liver, spleen, and kidney tissues [1]: approximately 1 × 10^9 CFU/g
